Measured values as given in the pKa sets of Baltruschat and Czodrowski (2020).

Settings: acidic group

| SMILES | pKa |
| --- | --- |
| O=C(O)[C@@]1(Cl)[C@@H]2CCC[C@@H]21 | 3.03 |
| [NH3+][C@H]1CC(=O)NC1=O | 5.9 |
| CC(C)(O)C(C(=O)O)c1ccc(-c2ccccc2)cc1 (configuration not stated) | 3.76 |
| Cc1ncc(CO)c(CO)c1O | 8.98 |
| CCOC(=O)C(Cc1ccc([N+](=O)[O-])cc1)C(C)=O (configuration not stated) | 11.1 |
| Cc1cc(N(C)C)cc[n+]1O | 4.37 |
| CN1C(=S)NC(=O)C12CCCCC2 | 9.25 |
| Cc1cccc(C[N+](=O)[O-])c1 | 6.97 |
| C[NH2+]C(C)(C)C(=O)O | 2.2 |
| O=[N+]([O-])c1ccc2ccc(O)cc2c1 | 8.81 |
| CC/C=C/Cc1[nH+]ccn1[C@H](C(=O)O)C(C)(C)S | 2 |
| C=CC#CCC(=O)O | 3.41 |
| O=C(O)c1ccc(I)cc1 | 3.99 |
| O=C(NBr)c1ccccc1 | 7.3 |
| O=C(Cc1ccccc1)c1cc[n+]([CH-]c2cccc([N+](=O)[O-])c2)cc1 | 11.6 |
| CC(=O)c1cc(C(=O)c2ccccc2)n[nH]1 | 9.01 |
| NC(=N\O)/C(N)=N/O | 11.3 |
| CC/C=C/Cc1nc(C(=O)[O-])cn1[C@H](C(=O)[O-])C(C)(C)S | 10.2 |
| CC=C=CC(C)(C)C(=O)O | 4.58 |
| O=C(N/N=C/c1ccccc1O)c1ccncc1 | 8.31 |
| Cc1ccc(S(=O)(=O)Nc2ccccc2)cc1 | 8.46 |

| SMILES | pKa |
| --- | --- |
| N#Cc1ccc(C(=O)O)cc1 | 3.53 |
| CCCCCOc1ccc(O)cc1 | 10.2 |
| N#CC(C#N)=C(c1ccccc1)C(C#N)C#N | 2.3 |
| Cc1cc(/N=N/c2nc3ccccc3s2)c2cccnc2c1O | 7.5 |
| Nc1ccc(O)c([N+](=O)[O-])c1 | 7.81 |
| N#CC(C#N)=C(Br)C(C#N)C#N | 2.6 |
| Oc1c(Br)cccc1Br | 6.6 |
| Cn1cnc2nc([O-])nc(O)c21 | 10.6 |
| OC(c1ccncc1)n1cc[nH+]c1 (configuration not stated) | 7.24 |
| N#CC(c1ccccc1)c1ccc([N+](=O)[O-])cc1 (configuration not stated) | 10.9 |
| Sc1cccc2ccc[nH+]c12 | 2.05 |
| CC(C)C([NH2+]c1ccccc1)C(=O)O (configuration not stated) | 4.4 |
| CCN(CC)C(=S)NC(=O)c1ccc(C)cc1 | 8.77 |
| COc1ccccc1/C=C/C=N/O | 10.8 |
| O=C(O)Cc1ccoc1 | 4.07 |
| Oc1ccccc1-c1nnn[nH]1 | 4.36 |
| O=C(O)CNC(=O)CNS(=O)(=O)c1ccccc1 | 3.55 |
| Oc1c(Cl)cc(Cl)cc1C[NH+]1CCOCC1 | 5.67 |
| OCC(S)C[S-] (configuration not stated) | 10.6 |
| O=c1cc(-c2ccccc2)oc2c(O)cccc12 | 7.82 |
| C[N+](C)(C)CCCc1ccccc1O | 9.78 |

| SMILES | pKa |
| --- | --- |
| Nc1ncnc2nc[nH]c12 | 9.74 |
| O=C(Nc1ccccc1)ONC(=O)c1ccccc1 | 6.4 |
| CCCCSC(=N)c1ccccc1 | 8.21 |
| O=C(O)/C=C(\I)c1ccccc1 | 3.4 |
| Cc1cc2nc[nH]c2cc1C | 12.5 |
| NS(=O)(=O)c1cc2c(cc1Cl)N=CNS2(=O)=O | 6.7 |
| C/C(=N/c1ccccc1O)c1ccccc1O | 9.23 |
| CNC(=N)CCNS(=O)(=O)c1ccc(C)cc1 | 11.9 |
| CC(C)(C)c1cc(/C=C/Cl)cc(C(C)(C)C)c1O | 11.8 |
| Oc1cccc[nH+]1 | 0.75 |
| O=C1NC(=O)c2cc([N+](=O)[O-])ccc21 | 8.68 |
| CC1CCC(O)(C(C(=O)O)c2ccc(-c3ccccc3)cc2)CC1 (configuration not stated) | 3.45 |
| Cc1nnc([N-]S(=O)(=O)c2ccc(O)cc2)s1 | 8.81 |
| O=C1/C(=N/O)C=Cc2ccccc21 | 7.52 |
| C[n+]1cccc2cccc(O)c21 | 6.81 |
| CC(C)=CCC1C(=O)C(CC=C(C)C)(CC=C(C)C)C(O)(C(=O)O)C1=O (configuration not stated) | 3.9 |
| C[C@]12CC[C@@H]3c4ccc(O)cc4CC[C@H]3[C@@H]1C[C@@H](O)[C@@H]2O | 10.8 |
| Oc1nc2nc[nH]c2c(O)[nH+]1 | 1.2 |
| C=C(C)[C@@H]1C[NH2+][C@H](C(=O)O)[C@@H]1CC(=O)O | 2.09 |
| Oc1cccc2cncnc12 | 8.65 |
| C[NH+](C)CCCCCCCNC(=O)/C=N/O | 8.98 |

| SMILES | pKa |
| --- | --- |
| C=C(CCCC)C(=O)O | 4.8 |
| [NH3+]CC(=O)NCC(=O)NCC(=O)N1CCC[C@H]1C(=O)O | 2.91 |
| CC[NH+](CC)Cc1cccc(C)c1O | 10 |
| C[N+](C)(C)Cc1cccc(O)c1O | 8.1 |
| C[Si](C)(C)CCCC(=O)O | 4.89 |
| O=C(O)CSC(c1ccccc1)(c1ccccc1)c1ccccc1 | 4.32 |
| O=c1c2[nH]cnc2ncn1[O-] | 10.1 |
| Cc1c(C(=O)O)cccc1[N+](=O)[O-] | 2.98 |
| CCC[NH+](CCC)CCCNC(=O)/C=N/O | 8.73 |
| O/N=C/c1ccccc1 | 10.8 |
| S=C(S)N1CCCC1 | 2.97 |
| COc1ccc(NC=S)cc1 | 11.7 |
| Nc1cc(N2CCOCC2)nc(N)n1 | -0.35 |
| Cc1cc(I)ccc1C(=O)O | 3.79 |
| CC(=O)/C(=N\O)C(C)C | 9.5 |
| O=C(O)c1cncs1 | 2.99 |
| NC(=O)CS | 8.22 |
| O=C(O)C1CCCOC1 (configuration not stated) | 4.25 |
| O=C(Oc1ccc(Cl)cc1)C1c2ccccc2-c2ccccc21 | 10.3 |

Same assay, conditions: basic group

| SMILES | pKa |
| --- | --- |
| N[C@H]1C[C@@H]1[NH3+] | 5.9 |
| Cc1ncc(CO)c(CO)c1O | 4.96 |
| CN(CC[NH+](C)C)c1ccnc2cccc([N+](=O)[O-])c12 | 4.86 |
| OC(CN1CCOCC1)C[NH+]1CCOCC1 | 5 |
| CN(C)Cc1cc(Cl)ccc1[O-] | 11 |
| CCN(CC)CCNc1nc(C)cc(Nc2ccc(Cl)cc2)n1 | 9.6 |
| CC(C)CCCN(C)CCCNC(=O)/C=N/[O-] | 10.2 |
| COc1ccc2c3c1O[C@H]1C(=O)CC[C@H]4[C@@H](C2)N(C)CC[C@]314 | 7.67 |
| NCCCCCCCC(=O)[O-] | 11 |
| CSc1cc2ccccc2cn1 | 3.41 |
| CC(C)[C@H]1CN[C@H](C(=O)[O-])[C@H]1CC(=O)[O-] | 10.6 |
| CNCCCNC | 10.7 |
| Nc1ccc(C[NH3+])cc1 | 4.16 |
| CC(C)[C@H](N)C(=O)[O-] | 9.66 |
| CC(C)=NNC1CCN(C)CC1 | 8.9 |
| NCCc1ccc([O-])cc1 | 10.4 |
| C=C[C@]1(O)CN2CC[C@H]1C[C@@H]2[C@@H](O)c1ccnc2ccc(OC)cc12 | 7.24 |
| CSc1cccnc1 | 4.45 |
| CCCCCCCCCCCCCCCCCCN(CC(O)CC)CC(O)CC (configuration not stated) | 5.6 |
| NC(=N\O)/C(N)=N/O | 2.97 |
| Nc1cccnc1C(=O)[O-] | 7.18 |
| CC/C=C/Cc1nc(C(=O)[O-])cn1[C@H](C(=O)[O-])C(C)(C)S | 6.4 |
| Oc1ccccc1CN1CCCCC1 | 8.6 |

| SMILES | pKa |
| --- | --- |
| O=C(N/N=C/c1ccccc1O)c1ccncc1 | 3.33 |
| C=CCN(CC(C)O)CC(C)O (configuration not stated) | 8.2 |
| C[Si](C)(C)OC1CN(Cc2ccc(F)cc2)C1 | 7.91 |
| CCCCCN | 10.7 |
| COc1cnccc1N | 9.03 |
| Nc1cccc2ccc([N+](=O)[O-])cc12 | 2.83 |
| Cc1nc2ncccc2[nH]1 | 4.6 |
| CC1/C(=N\O)C[C@@H]2N=C(c3ccccc3)O[C@@]13[C@@H]1OC(=O)[C@H](C)[C@H]1CC[C@]23C (some centres not stated) | 4.65 |
| CCC(=O)C(CCN1CCCCC1)(c1ccccc1)c1ccccc1 | 8.86 |
| CC(C)NCC(O)COc1ccccc1 (configuration not stated) | 9.45 |
| Cc1ccc2c(c1)NCC[NH2+]2 | 2.03 |
| COc1ccc(N)cc1C[NH3+] | 5.24 |
| COc1ccc(S(=O)(=O)CCN2CCOCC2)c(OC)c1OC | 4.89 |
| Cc1[nH]nc(O)c1C(C)C | 3 |
| CCCCCCN(CC(C)O)CC(O)CC (configuration not stated) | 8.9 |
| C[Si](C)(C)c1ccc(N)cc1 | 4.36 |
| CC(=O)Oc1ccccc1C(=O)NCC(=O)O | 3.77 |
| Nc1ncnc2nc[nH]c12 | 4.2 |
| CCCC(N)C(=O)[O-] (configuration not stated) | 9.86 |
| N#CCCNN | 5.91 |
| NCCCc1ccccn1 | 10.1 |
| Cc1cc2nc[nH]c2cc1C | 6.04 |
| COc1ccc(-c2cn3ccsc3n2)c(OC)c1 | 4.67 |

| SMILES | pKa |
| --- | --- |
| Cc1cc(C)c2nc(C)cc(N)c2c1 | 10.4 |
| C/C(=N/c1ccccc1O)c1ccccc1O | 5.14 |
| CNC(=N)CCNS(=O)(=O)c1ccc(C)cc1 | 10 |
| CCCNC(C)C | 11 |
| Nc1c2ccccc2nc2c(N)cccc12 | 9.3 |
| c1ccc(-c2ccn[nH]2)[nH+]c1 | -1.1 |
| C=CCN1CC[C@]23c4c5ccc(O)c4O[C@H]2[C@@H](O)C=C[C@H]3[C@H]1C5 | 7.83 |
| CC[C@@H]1C(=O)OC[C@H]1Cc1cncn1C | 7.17 |
| CN[C@H]1C[C@]1(C)NC | 9.05 |
| CC1(C)CN1 | 5.37 |
| OCCNC1CCN(Cc2ccccc2)CC1 | 9.24 |
| Cc1ccccc1C(=NCC[NH+](C)C)c1ccccc1C | 2.82 |
| CCN1CC1 | 7.91 |
| CCC(N)CO (configuration not stated) | 9.53 |
| Cc1cccc(C)c1NC(=O)CN(C)C | 7.36 |
| C[C@H]([C@H](O)c1ccccc1)N(C)C | 10 |
| C=C(C)[C@@H]1CN[C@H](C(=O)[O-])[C@@H]1CC(=O)[O-] | 10.2 |
| c1cnc2c(c1)c1c(c3cccnc32)CCCC1 | 5.3 |
| CC1CCCCC1=N (configuration not stated) | 9.38 |
| Cc1cccc(C)c1Oc1ccccn1 | 2.26 |
| NCCCN | 10.6 |
| Oc1cccc2cncnc12 | 3.41 |
| CC(=O)c1cccc(N)c1 | 3.61 |

| SMILES | pKa |
| --- | --- |
| O=[N+]([O-])c1cc(CN2CCOCC2)c([O-])c2ccccc12 | 7.98 |
| c1c(CN2CCNCC[NH2+]CC2)n[nH]c1CN1CCNCC[NH2+]CC1 | 6.8 |
| Cc1ccnc(/N=C/c2ccc([N+](=O)[O-])cc2)n1 | 3.66 |
| CC1CCNCC1 | 10.9 |
| CCC(O)CN(C)CCO (configuration not stated) | 8.7 |
| CCOCCNc1ccc(Cl)cc1 | 3.28 |
| C#CCN1CCN(C(=O)OCC)CC1 | 5.44 |
| CC(C)n1nnnc1N | 1.91 |
| NCC[Se-] | 10.9 |
| c1ccc2[nH]c(-c3ccncc3)nc2c1 | 10.8 |
| C[C@@H]1CCC[C@H](C)N1CC(C)(C)O | 10.7 |
| CCCCN(CCCC)c1ccc([N+](=O)[O-])cc1 | 1.08 |
| Cc1c(C(=O)[O-])sc2cc(Cn3ccnc3)ccc12 | 6.35 |
| COc1ccc(OC)c(N)c1 | 3.72 |
| C[NH+](C)CCC/N=C(\c1ccccc1)c1ccccc1-c1ccccc1 | 4.43 |
| CN(C)c1nc2c(o1)CCCC2 | 6.16 |
| NC1CCc2ccccc2C1 (configuration not stated) | 9.97 |
| Nc1cc(N2CCOCC2)nc(N)n1 | 6.73 |
| NCCCC(=O)[O-] | 10.5 |
| COc1nc(C)cc([O-])n1 | 8.4 |
| c1coc(C2CN3CCC2CC3)c1 (configuration not stated) | 10 |
